Source: US20220135622A1, “ANTIBACTERIAL PEPTIDES AND METHODS OF USE” (priority 2019, published 2022)
Values after ≈ are worked out from the molar mass of the structure shown. Read-outs that look alike come from different tables or passages of the source. Square brackets hold non-standard residues; d marks the D form. Peptide text beside a SMILES is read from it. Bip = N[C@@H](Cc1ccc(-c2ccccc2)cc1)C(=O)O; hhPhe = N[C@@H](CCCc1ccccc1)C(=O)O; Dap = NC[C@H](N)C(=O)O

Assays:
[1] = system: E. coli imp4213; experiment: MIC assay, E. coli imp4213; assay type: cell-based, Escherichia coli; details: Table 7
Method: (§1) Bacterial growth conditions. LB or Mueller Hinton II cation-adjusted broth (MHB II, BBL 212322) was prepared according to manufacturer's instructions and supplemented with arabinose at 0.02% for overnight growth or at indicated concentrations in the description of the figures. Bacterial cultures were grown at 37° C. When appropriate, media was supplemented with kanamycin (50 μg/mL), carbenicillin (50 μg/mL), chloramphenicol (12.5 or 25 μg/mL), hygromycin (200 μg/mL), and/or gentamicin (10 μg/mL).
(§2) Peptide sensitivity and MIC assays. Lyophilized peptides (Smartox Biotechnology, CPC Scientific. ABclonal) were solubilized to 10 mM in Tris buffer, pH 8, prior to making a 2-fold dilution series in MHBII cation adjusted broth with highest final assay concentration of 400-800 μM. Bacteria were grown to log phase and added to final OD600˜0.001. The final EDTA concentration was 0.5 mM for E. coli strains and 0.125 mM for USA300. The final volume of 10 μL/well in a 384 well black, clear bottom plate (Corning) was spun <1 min at <250×g and then incubated at 37° C. After 4 h, an equal volume (10 μL) of BacTiter-Glo™ (Promega) was added to each well and luminescence was read after 5 min on an EnVision plate reader (PerkinElmer). To measure the minimal inhibitory concentrations (MICs), bacteria from fresh overnight plates or log phase cultures were diluted with or without EDTA and peptides as described above to final OD600˜0.0002. Plates were incubated at 37° C. for 20 h before measuring OD600 with an EnVision plate reader.

[2] = system: S. aureus USA300; experiment: MIC assay, S. aureus USA300; assay type: cell-based, Staphylococcus aureus; details: Table 7
Method: as §1, §2

[3] = system: A. baumannii; assay type: cell-based, Acinetobacter baumannii
Method: as §1, §2

[4] = system: E. coli BW25113; assay type: cell-based, Escherichia coli
Method: as §1, §2

[5] = system: K. pneumoniae; assay type: cell-based, Klebsiella pneumoniae
Method: as §1, §2

[6] = system: P. aeruginosa; assay type: cell-based, Pseudomonas aeruginosa
Method: as §1, §2

Compound	MIC E. coli imp4213 [1]	MIC S. aureus USA300 [2]	other results
Ac-YPMTARRFLRKHGL-NH2 [compound 38]	100 µM	>800 µM	
Ac-YPMTARAFLEKHGL-NH2 [compound 31]	800 µM	>800 µM	
Ac-YPMTARRFLEAHGL-NH2 [compound 39]	200 µM	>800 µM	
Ac-RPMTARRFLEKHGL-NH2 [compound 19]	25 µM	>800 µM	
Ac-YPMTARKFLEKHGL-NH2 [compound 32]	100 µM	>800 µM	
Ac-YPLTARRFLEKHGL-NH2 [compound 22]	400 µM	>800 µM	
Ac-RPMTARRWLAKRGL-NH2 [compound 201]			MIC A. baumannii [3]: >400.0 µM; MIC E. coli BW25113 ([4]; BW25113): 25.0 µM; MIC K. pneumoniae [5]: >400.0 µM; MIC R. aeruginosa [6]: >400.0 µM
CSCC[C@H](NC(=O)[C@H](CN)NC(=O)[C@H](CCSC)NC(=O)[C@@H]1CCCN1C(=O)[C@H](CCCNC(=N)N)NC(C)=O)C(=O)N[C@@H](CCCNC(=N)N)C(=O)N[C@@H](CCCNC(=N)N)C(=O)N[C@@H](Cc1ccc(-c2ccccc2)cc1)C(=O)N[C@@H](CC(C)C)C(=O)N[C@@H](CCC(=O)O)C(=O)N[C@@H](CCCCN)C(=O)N[C@@H](Cc1c[nH]c2ccccc12)C(=O)NCC(=O)N[C@@H](CC(C)C)C(N)=O [compound 209] (Ac-RPM[Dap]MRR[Bip]LEKWGL-NH2)			MIC A. baumannii ([3]; Table 8): 12.5 µM (≈ 24 µg/mL); MIC E. coli BW25113 ([4]; Table 8): 6.25 µM (≈ 12 µg/mL); MIC K. pneumoniae ([5]; Table 8): 12.5 µM (≈ 24 µg/mL); MIC R. aeruginosa ([6]; Table 8): 25.0 µM (≈ 48.1 µg/mL)
CSCC[C@H](NC(=O)[C@@H]1CCCN1C(=O)[C@H](Cc1ccc(O)cc1)NC(C)=O)C(=O)N[C@@H](CN)C(=O)N[C@@H](Cc1ccccc1)C(=O)N[C@@H](CCCNC(=N)N)C(=O)N[C@@H](CCCNC(=N)N)C(=O)N[C@@H](Cc1ccc(-c2ccccc2)cc1)C(=O)N[C@@H](CC(C)C)C(=O)N[C@@H](CCC(=O)O)C(=O)N[C@@H](CCCCN)C(=O)N[C@@H](Cc1c[nH]c2ccccc12)C(=O)NCC(=O)N[C@@H](CC(C)C)C(=O)N[C@@H](CC(C)C)C(=O)N[C@@H](CCCNC(=N)N)C(N)=O [compound 90] (Ac-YPM[Dap]FRR[Bip]LEKWGLLR-NH2)			MIC A. baumannii ([3]; Table 8): 6.25 µM (≈ 13.8 µg/mL); MIC E. coli BW25113 ([4]; Table 8): 200.0 µM (≈ 443 µg/mL); MIC K. pneumoniae ([5]; Table 8): 50.0 µM (≈ 111 µg/mL); MIC R. aeruginosa ([6]; Table 8): 25.0 µM (≈ 55.4 µg/mL)
Ac-YAMTARRFLEKHGL-NH2 [compound 20]	400 µM	>800 µM	
Ac-YPMTARRWLEKHGL-NH2 [compound 34]	25 µM	>800 µM	
Ac-YPMTARRFLEKKGL-NH2 [compound 46]	100 µM	>800 µM	
Ac-YPMTARRFLEKRGL-NH2 [compound 45]	100 µM	>800 µM	
Ac-YPMSARRFLEKHGL-NH2 [compound 26]	800 µM	>800 µM	
Ac-YPMTARRFLEKYGL-NH2 [compound 43]	100 µM	>800 µM	
Ac-KPMTARRFLEKWGLLR-NH2 [compound 61]	12.5 µM		MIC A. baumannii ([3]; Table 8): 40 µM; MIC R. aeruginosa ([6]; Table 8): 400 µM
Ac-YPMTARRFLEKAGL-NH2 [compound 42]	800 µM	>800 µM	
Ac-YPMTARRFLEKHGW-NH2 [compound 47]	200 µM	>800 µM	
Ac-YPMTWRRFLEKHGL-NH2 [compound 28]	50 µM	>800 µM	
Ac-YPMTARHFLEKHGL-NH2 [compound 33]	800 µM	>800 µM	

Compound	MIC E. coli imp4213 [1]	MIC S. aureus USA300 [2]	other results
Ac-YPMTARRFLSKHGL-NH2 [compound 37]	400 µM	>800 µM	
Ac-FPMTARRFLEKHGL-NH2 [compound 17]	200 µM	>800 µM	
Ac-APMTARRFLEKHGL-NH2 [compound 16]	100 µM	>800 µM	
Ac-YPMTARRFLAKHGL-NH2 [compound 36]	100 µM	>800 µM	
Ac-YPMTARRFLEKWGLLR-NH2 [compound 14]	25 µM	800 µM	
Ac-YPMTARRFWEKHGL-NH2 [compound 35]	400 µM	>800 µM	
Ac-YPMTAKRFLEKHGL-NH2 [compound 30]	800 µM	>800 µM	
Ac-WPMTARRFLEKHGL-NH2 [compound 18]	200 µM	>800 µM	
Ac-YPATARRFLEKHGL-NH2 [compound 21]	800 µM	>800 µM	
Ac-YPMAARRFLEKHGL-NH2 [compound 25]	800 µM	>800 µM	
Ac-YPMTARRFLERHGL-NH2 [compound 41]	100 µM	>800 µM	
Ac-YPWTARRFLEKHGL-NH2 [compound 24]	400 µM	>800 µM	
Ac-YPFTARRFLEKHGL-NH2 [compound 23]	400 µM	>800 µM	
Ac-YPMSARRFLAKWGLLR-NH2 [compound 15]	<12.5 µM	800 µM	
Ac-YPMTARRFLEHHGL-NH2 [compound 40]	400 µM	>800 µM	
CSCC[C@H](NC(=O)[C@H](CN)NC(=O)[C@H](CCCc1ccccc1)NC(=O)[C@@H]1CCCN1C(=O)[C@H](CCCNC(=N)N)NC(C)=O)C(=O)N[C@@H](CCCNC(=N)N)C(=O)N[C@@H](CCCNC(=N)N)C(=O)N[C@@H](Cc1ccc(-c2ccccc2)cc1)C(=O)N[C@@H](CC(C)C)C(=O)N[C@@H](C)C(=O)N[C@@H](CCCCN)C(=O)N[C@@H](CCCNC(=N)N)C(=O)NCC(=O)N[C@@H](CC(C)C)C(N)=O [compound 226] (Ac-RP[hhPhe][Dap]MRR[Bip]LAKRGL-NH2)			MIC E. coli BW25113 ([4]; BW25113): 25.0 µM (≈ 47 µg/mL)
Ac-YPMTYRRFLEKHGL-NH2 [compound 27]	400 µM	>800 µM	
CSCC[C@H](NC(=O)[C@H](CN)NC(=O)[C@@H]1CCCN1C(=O)[C@H](Cc1ccc(O)cc1)NC(C)=O)C(=O)N[C@@H](Cc1ccccc1)C(=O)N[C@@H](CCCNC(=N)N)C(=O)N[C@@H](CCCNC(=N)N)C(=O)N[C@@H](Cc1ccccc1)C(=O)N[C@@H](CC(C)C)C(=O)N[C@@H](CCC(=O)O)C(=O)N[C@@H](CCCCN)C(=O)N[C@@H](Cc1c[nH]c2ccccc12)C(=O)NCC(=O)N[C@@H](CC(C)C)C(=O)N[C@@H](CC(C)C)C(=O)N[C@@H](CCCNC(=N)N)C(N)=O [compound 103] (Ac-YP[Dap]MFRRFLEKWGLLR-NH2)			MIC E. coli BW25113 ([4]; BW25113): <12.5 µM
Ac-YPMTRRRFLEKHGL-NH2 [compound 29]	800 µM	>800 µM	
